Tested on: hypertriglyceridemic patients with cardiovascular disease or at high risk for cardiovascular disease
Experiment: REDUCE-IT: total (first and subsequent/recurrent) ischemic events analyses (negative binomial, Andersen-Gill, Wei-Lin-Weissfeld, joint frailty)
Type: in vivo, human
Details: for Cardiovascular Death, HR (95% CI) / Non-fatal Cardiovascular Event, HR (95% CI): joint frailty model; for Key secondary composite endpoint, HR (95% CI) / Primary composite endpoint, HR (95% CI): modified WLW
Description: The primary outcome for the study was total recurrent events consisting of the composite of cardiovascular death, nonfatal myocardial infarction, nonfatal stroke, coronary revascularization, or hospitalization for unstable angina. Recurrent event analyses were also performed for the key secondary endpoint, a composite of cardiovascular death, non fatal myocardial infarction, or non-fatal stroke. For each of these composite endpoints, the effects of icosapent ethyl in the secondary and primary prevention strata were examined separately.
Demographic and baseline disease characteristics are presented using frequencies and percentages for categorical variables and medians with interquartile ranges for continuous variables. Between treatment group comparisons were derived using the chi-square test for categorical variables and Wilcoxon rank test for continuous variables. All clinical endpoint events used in the efficacy analyses were adjudicated by an independent Clinical Endpoint Committee (CEC) who were blinded to the treatment assignment. Since the primary efficacy endpoint was the time from randomization to the first occurrence of any component of the composite endpoint, and recurrence of such events within each patient is possible, a pre-specified analysis using a Cox proportional-hazard with the counting-process formulation of Andersen and Gill was performed to model the first and all recurrent cardiovascular events. Hazard ratios (HR) and corresponding 95% confidence intervals (CI) are reported from this model. In addition, as a marginal model and an extension of survival models based on the Cox proportional hazard model, the modified Wei-Lin-Weissfeld (WLW) method for analysis of recurrent events in the presence of deaths was carried out as a supportive analysis. In addition, as pre-specified, a recurrent event analysis using the Andersen-Gill and Wei-Lin-Weissfeld methods were carried out for the individual primary event components other than CV death. Though not pre-specified, additional recurrent event analyses were performed for the key secondary endpoint, which is a composite of CV death, non-fatal MI, or non-fatal stroke, and for the primary endpoint and the key secondary endpoint in the primary and secondary prevention strata to explore further the consistency of clinical benefit of icosapent ethyl. In subgroup analyses of the two cardiovascular risk strata (i.e., primary and secondary prevention), site-level discrepancies in cardiovascular risk group assignment occurring at entry and detected during the study (1.8%) were adjusted to conform with documented medical history data prior to randomization. All efficacy analyses were performed according to the intention-to-treat principle. All tests were based on a 2-sided nominal significance level of 5% with no adjustments for multiple comparisons.
The following study was a multi-center, placebo-controlled clinical trial the details of which are described above in Example 1, the REDUCE-IT design. […] The main outcomes were total primary composite endpoint events defined as cardiovascular death, nonfatal myocardial infarction, nonfatal stroke, coronary revascularization, or hospitalization for unstable angina and total key secondary composite endpoint events defined as cardiovascular death, nonfatal myocardial infarction, or nonfatal stroke. In the context of this study, total events refer to any first event as well as any subsequent event. Differences in total events were determined using other statistical models, including Andersen-Gill, Wei-Lin-Weisfeld (Li and Lagakos), both pre-specified, and a post hoc and joint-frailty analysis.
For the present prespecified analysis, the primary outcome was the total of first plus subsequent ischemic events consisting of the composite of cardiovascular death, nonfatal myocardial infarction, nonfatal stroke, coronary revascularization, or hospitalization for unstable angina. […]

[1] = Andersen-Gill (I), adjusted, full dataset
[2] = Andersen-Gill (I), adjusted, reduced dataset
[3] = Andersen-Gill (I), unadjusted, full dataset
[4] = Andersen-Gill (I), unadjusted, reduced dataset
[5] = Andersen-Gill (II), adjusted, full dataset
[6] = Andersen-Gill (II), adjusted, reduced dataset
[7] = Andersen-Gill (II), unadjusted, full dataset
[8] = Andersen-Gill (II), unadjusted, reduced dataset
[9] = as summarised in the Example 6 conclusion
[10] = including same-day recurrent events, ITT, denominator total number of events in category
[11] = key secondary endpoint, adjusted, reduced dataset
[12] = key secondary endpoint, unadjusted, reduced dataset
[13] = primary endpoint, adjusted, reduced dataset
[14] = primary endpoint, unadjusted, reduced dataset
[15] = first event, adjusted, full dataset
[16] = first event, adjusted, reduced dataset
[17] = first event, unadjusted, full dataset
[18] = first event, unadjusted, reduced dataset
[19] = second event, adjusted, full dataset
[20] = second event, adjusted, reduced dataset
[21] = second event, unadjusted, full dataset
[22] = second event, unadjusted, reduced dataset
[23] = third event, adjusted, full dataset
[24] = third event, adjusted, reduced dataset
[25] = third event, unadjusted, full dataset
[26] = third event, unadjusted, reduced dataset
[27] = negative binomial, adjusted, full dataset
[28] = negative binomial, adjusted, reduced dataset
[29] = negative binomial, unadjusted, full dataset
[30] = negative binomial, unadjusted, reduced dataset
[31] = per 100 patients treated for five years
[32] = per 1000 patients treated for five years
[33] = primary composite endpoint, after reduction, share of overall events in category
[34] = total events including same-day recurrent events, ITT, denominator total number of events in category

CC/C=C\C/C=C\C/C=C\C/C=C\C/C=C\CCCC(=O)OCC [AMR101, eicosapentaenoic acid ethyl ester]
Total key secondary composite endpoint events, HR (95% CI) [1]: 0.71
Total primary composite endpoint events, HR (95% CI) [1]: 0.68
Total key secondary composite endpoint events, HR (95% CI) [2]: 0.72
Total primary composite endpoint events, HR (95% CI) [2]: 0.69
Total key secondary composite endpoint events, HR (95% CI) [3]: 0.71
Total primary composite endpoint events, HR (95% CI) [3]: 0.68
Total key secondary composite endpoint events, HR (95% CI) [4]: 0.72
Total primary composite endpoint events, HR (95% CI) [4]: 0.69
Total key secondary composite endpoint events, HR (95% CI) [5]: 0.71
Total primary composite endpoint events, HR (95% CI) [5]: 0.68
Total key secondary composite endpoint events, HR (95% CI) [6]: 0.72
Total primary composite endpoint events, HR (95% CI) [6]: 0.69
Total key secondary composite endpoint events, HR (95% CI) [7]: 0.71
Total primary composite endpoint events, HR (95% CI) [7]: 0.68
Total key secondary composite endpoint events, HR (95% CI) [8]: 0.72
Total primary composite endpoint events, HR (95% CI) [8]: 0.69
Total key secondary endpoints, number of events (Example 2, overall, 861 with placebo): 590
Total key secondary endpoint events, rate ratio (Example 3): 0.72
Total key secondary endpoint events, rate ratio [9]: 0.71
Total primary endpoint events, rate ratio [9]: 0.69
Key Secondary Endpoint Events: Others, % [10]: (52.9) %
Key Secondary Endpoint Events: ≥1 event, % [10]: (43.1) %
Key Secondary Endpoint Events: ≥2 events, % [10]: (37.9) %
Key Secondary Endpoint Events: ≥3 events, % [10]: (35.1) %
Key Secondary Endpoint Events: ≥4 events, % [10]: (42.9) %
Primary Endpoint Events: Others, % [10]: (35.0) %
Primary Endpoint Events: ≥1 event, % [10]: (43.9) %
Primary Endpoint Events: ≥2 events, % [10]: (39.2) %
Primary Endpoint Events: ≥3 events, % [10]: (35.3) %
Primary Endpoint Events: ≥4 events, % [10]: (27.9) %
Cardiovascular Death, HR (95% CI) [11]: 0.79
Non-fatal Cardiovascular Event, HR (95% CI) [11]: 0.68
Cardiovascular Death, HR (95% CI) [12]: 0.79
Non-fatal Cardiovascular Event, HR (95% CI) [12]: 0.68
Cardiovascular Death, HR (95% CI) [13]: 0.80
Non-fatal Cardiovascular Event, HR (95% CI) [13]: 0.67
Cardiovascular Death, HR (95% CI) [14]: 0.80
Non-fatal Cardiovascular Event, HR (95% CI) [14]: 0.66
Key secondary endpoint: fatal events, % (key secondary composite endpoint, after reduction, share of overall events in category): 45.0%
Key secondary endpoint: total events before reduction, % (key secondary composite endpoint, before reduction, share of overall events in category): 42.0%
Key secondary composite endpoint, HR (95% CI) [15]: 0.74
Primary composite endpoint, HR (95% CI) [15]: 0.75
Key secondary composite endpoint, HR (95% CI) [16]: 0.74
Primary composite endpoint, HR (95% CI) [16]: 0.75
Key secondary composite endpoint, HR (95% CI) [17]: 0.74
Primary composite endpoint, HR (95% CI) [17]: 0.76
Key secondary composite endpoint, HR (95% CI) [18]: 0.74
Primary composite endpoint, HR (95% CI) [18]: 0.76
Key secondary composite endpoint, HR (95% CI) [19]: 0.75
Primary composite endpoint, HR (95% CI) [19]: 0.68
Key secondary composite endpoint, HR (95% CI) [20]: 0.75
Primary composite endpoint, HR (95% CI) [20]: 0.68
Key secondary composite endpoint, HR (95% CI) [21]: 0.75
Primary composite endpoint, HR (95% CI) [21]: 0.69
Key secondary composite endpoint, HR (95% CI) [22]: 0.75
Primary composite endpoint, HR (95% CI) [22]: 0.69
Key secondary composite endpoint, HR (95% CI) [23]: 0.79
Primary composite endpoint, HR (95% CI) [23]: 0.70
Key secondary composite endpoint, HR (95% CI) [24]: 0.79
Primary composite endpoint, HR (95% CI) [24]: 0.69
Key secondary composite endpoint, HR (95% CI) [25]: 0.79
Primary composite endpoint, HR (95% CI) [25]: 0.70
Key secondary composite endpoint, HR (95% CI) [26]: 0.79
Primary composite endpoint, HR (95% CI) [26]: 0.69
Total primary endpoint events, rate ratio (negative binomial model, Example 3): 0.70
Total key secondary composite endpoint events, HR (95% CI) [27]: 0.71
Total primary composite endpoint events, RR (95% CI) [27]: 0.69
Total key secondary composite endpoint events, RR (95% CI) [28]: 0.72
Total primary composite endpoint events, RR (95% CI) [28]: 0.70
Total key secondary composite endpoint events, RR (95% CI) [29]: 0.71
Total primary composite endpoint events, RR (95% CI) [29]: 0.67
Total key secondary composite endpoint events, RR (95% CI) [30]: 0.71
Total primary composite endpoint events, RR (95% CI) [30]: 0.68
Total key secondary endpoint events, HR (overall): 0.71
Cardiovascular deaths that could be prevented [31]: 1
Coronary revascularizations that could be prevented [31]: 8
Episodes of unstable angina that could be prevented [31]: 2
Myocardial infarctions that could be prevented [31]: 4
Strokes that could be prevented [31]: 1
Cardiovascular deaths that could be prevented [32]: 12
Coronary revascularizations that could be prevented [32]: 76
Episodes of hospitalization for unstable angina that could be prevented [32]: 16
Myocardial infarctions that could be prevented [32]: 42
Strokes that could be prevented [32]: 14
Primary endpoint: fatal events, % [33]: (45.0) %
Primary endpoint: total events after reduction, % [33]: (41.0) %
Total key secondary endpoint events, HR (primary prevention stratum): 0.71
Total key secondary endpoint events, HR (secondary prevention stratum): 0.70
Key Secondary Endpoint Events, % [34]: (42.0) %
Primary Endpoint Events, % [34]: (40.7) %
